# Laboratory results: patent US4585861A, “1,2,4-triazine derivatives” (Eli Lilly and Company, priority 1985, dated 1986)
# Legend:
# [1] = Mouse Writhing Inhibition Assay; assay type: in vivo, Cox standard strain albino male mice; conditions: oral gavage 60 min before acetic acid 55 mg./kg. i.p., active = less than ten writhes, read-out: Minimum active oral dose, Mouse Writhing
# Procedure: Writhing, which is characterized by contraction of the abdominal musculature, extension of the hindlegs, and rotation of the trunk, was induced in Cox standard strain albino male mice. The mice, weighing 18-24 grams, were fasted overnight and given the test compound by gavage in an acacia suspension (5%) 60 minutes before writhing was induced by the intraperitoneal administration of 55 mg./kg. of acetic acid (0.55 percent). Each treatment group consisted of 3 mice. The total number of writhes for the treatment group was determined during a 5-minute observation starting 5 minutes after acetic acid administration.
# [2] = Metrazole Induced Convulsion Inhibition Assay; assay type: in vivo, Cox standard strain albino male mice; conditions: Mus musculus; oral gavage, 1 h before metrazole 110 mg./kg. i.p.; active = total score of 6 or less (3 mice, range 0-12); read-out: Minimum active oral dose, Metrazole
# Procedure: (§1) In this assay, a compound to be tested was suspended in acacia (5%) and administered by gavage to each of three Cox standard strain albino male mice (18-24 grams) at the dose level being investigated. One hour after the oral administration, a water solution of metrazole (pentylenetetrazole) was administered by the intraperitoneal route to each mouse at a dose of 110 mg./kg. […] A score of 0 was assigned to a mouse not showing any signs of convulsant activity; a score of 1 was given to mice developing clonic convulsions; a score of 2 was given to mice showing flexor tonic convulsions; a score of 3 was given to mice showing extensor tonic convulsions; and a score of 4 was given to mice that died within the one hour. The scores of the three mice were totalled for each compound and dose level. The scores can range from 0 to 12; a score of 6 or less was interpreted as indicative of an active compound at that dose level. Values reported in Table 2 below are the minimum oral dose levels (mg./kg.) where activity as defined above was observed.
# [3] = Electroshock Induced Convulsion Inhibition Assay; assay type: in vivo, Cox standard strain albino male mice; conditions: Mus musculus; oral; 0.1 second, 50 milliampere corneal electroshock; active = total score of 6 or less; read-out: Minimum active oral dose, Electro-Shock
# Procedure: as §1
# The drug administration and test conditions used in this assay were similar to those used in the metrazole induced convulsion inhibition assay above except that a 0.1 second, 50 milliampere electroshock through corneal electrodes induced the convulsion instead of metrazole. The animals were examined and evaluated immediately after the electroshock and were scored as before. The results in Table 2 are expressed as the lowest dose of each compound tested which was active as previously defined. For comparison, 18 milliamperes was usually sufficient to produce extensor tonic convulsions in about half of the control animals; at 50 milliamperes, almost all control animals died. Diazepam was active at about 1 mg./kg.
# [4] = Appetite Suppression Assay; assay type: in vivo, Cox standard strain albino male mice; conditions: Mus musculus; oral gavage 30 min before feeding; active = weight gain of less than 10% of weight lost on fasting; read-out: Minimum active oral dose, Appetite Suppression
# Procedure: In this test, groups of three Cox standard strain albino male mice were weighed (18-24 grams) and then fasted overnight (16-18 hours). The mice were reweighed and then given the test compound in a suspension of acacia (5%) by gavage. Thirty minutes after oral administration, the mice were allowed to eat freely for one hour. After the eating period, the mice were weighed once more. The percent of weight gained (from the time the mice were given the test compound to after the feeding period) compared to weight lost during the fast period was calculated. The non-drug treated control animals gained back 35-55% of the weight lost on fasting. Any compound at the dose level tested which produced a weight gain of less than 10% was considered to be active. The results in Table 2 report the lowest dose level in which there was activity for each compound tested. Dextroamphetamine sulfate is active in this system at about 2.5 mg./kg.
# benzodiazepine receptor = assay: In vitro activation of benzodiazepine (BZ) binding (flunirazepam, native membrane protein); conditions: average of one or more tests, read-out: SC50 BZ (nanomolar concentration producing a 50% increase in binding)
# Procedure: (§2) The novel compounds of this invention were examined for their in vitro ability to activate GABA and benzodiazepine (BZ) binding. To measure the effect of a compound on GABA binding, Triton X-100 (octylphenoxy polyethoxyethanol, Rohm and Haas Co.) treated membrane protein was incubated in the presence of the compound and [^3 H]GABA as detailed by Horng and Wong, J. Neurochemistry, 32 (5), 1379 (1979). To examine BZ binding, H-flunirazepam and the compounds were incubated with native membrane protein as reported by Wong, et al, Brain Res. Bull., 5 (Suppl. 2), 853 (1980). The results in Table 1 are the nanomolar concentrations of compounds (by Example No.) which produced a 50 percent increase (SC50) in GABA or BZ binding. Each result is the average of one or more tests.
# GABA receptor = assay: In vitro activation of GABA binding ([3H]GABA, Triton X-100 treated membrane protein); conditions: average of one or more tests, read-out: SC50 GABA (nanomolar concentration producing a 50% increase in binding)
# Procedure: as §2
Compound,EC50 (benzodiazepine receptor),EC50 (GABA receptor),minimal effective dose [1],minimal effective dose [2],minimal effective dose [3],minimal effective dose [4]
"Cc1ccc(-c2nnc(N3CCC(O)C3)nc2-c2ccc(C)cc2)cc1 (centres unmarked) [Example 18, 1-[5,6-bis(4-methylphenyl)-1,2,4-triazin-3-yl]-3-pyrrolidinol]",–,–,200 mg/kg,> 200 mg/kg,200 mg/kg,12.5 mg/kg
"Cc1ccc(-c2nnc(N3CCCCC3)nc2-c2ccc(C)cc2)cc1 [Example 20, 5,6-bis(4-methylphenyl)-3-(1-piperidinyl)-1,2,4-triazine]",515 nM,5200 nM,12.5 mg/kg,12.5 mg/kg,50 mg/kg,12.5 mg/kg
"Cc1ccc(-c2nnc(N3CCCCCC3)nc2-c2ccc(C)cc2)cc1 [Example 21, 1-[5,6-bis(4-methylphenyl)-1,2,4-triazin-3-yl]-hexahydro-1H-azepine]",600 nM,2000 nM,> 200 mg/kg,> 200 mg/kg,> 200 mg/kg,> 200 mg/kg
"Cc1ccc(-c2nnc(N3CCCC(O)C3)nc2-c2ccc(C)cc2)cc1 (centres unmarked) [Example 23, 1-[5,6-bis(4-methylphenyl)-1,2,4-triazin-3-yl]-3-piperidinol]",700 nM,400 nM,12.5 mg/kg,50 mg/kg,50 mg/kg,12.5 mg/kg
"CC(=O)OC1CCCN(c2nnc(-c3ccc(C)cc3)c(-c3ccc(C)cc3)n2)C1 (centres unmarked) [Example 24, 1-[5,6-bis(4-methylphenyl)-1,2,4-triazine-3-yl]-3-piperidinol, acetate (ester)]",180 nM,160 nM,> 200 mg/kg,> 200 mg/kg,> 200 mg/kg,> 200 mg/kg
"Cc1ccc(-c2nnc(N3CCC(C)CC3)nc2-c2ccc(C)cc2)cc1 [Example 25, 5,6-bis(4-methylphenyl)-3-(4-methyl-1-piperidinyl)-1,2,4-triazine]",–,–,> 200 mg/kg,> 200 mg/kg,> 200 mg/kg,50 mg/kg

# Further lines, with some results ahead:
EC50 (benzodiazepine receptor),EC50 (GABA receptor),Compound,minimal effective dose [1],minimal effective dose [2],minimal effective dose [3],minimal effective dose [4]
90 nM,80 nM,"COC1CCN(c2nnc(-c3ccc(C)cc3)c(-c3ccc(C)cc3)n2)CC1 [Example 26, 3-(4-methoxy-1-piperidinyl)-5,6-bis(4-methylphenyl)-1,2,4-triazine]",6.2 mg/kg,6.2 mg/kg,6.2 mg/kg,6.2 mg/kg
650 nM,160 nM,"Cc1ccc(-c2nnc(N3CCC(OC(=O)Oc4ccccc4)CC3)nc2-c2ccc(C)cc2)cc1 [Example 28, carbonic acid, 1-[5,6-bis(4-methylphenyl)-1,2,4-triazin-3-yl]-4-piperidinyl phenyl ester]",> 200 mg/kg,> 200 mg/kg,> 200 mg/kg,> 200 mg/kg
15 nM,56 nM,"Cc1ccc(-c2nnc(N3CCC(OC(N)=O)CC3)nc2-c2ccc(C)cc2)cc1 [Example 29, 1-[5,6-bis(4-methylphenyl)-1,2,4-triazin-3-yl]-4-piperidinol, carbamate (ester)]",1.56 mg/kg,> 6.25 mg/kg,> 6.25 mg/kg,0.4 mg/kg
6 nM,68 nM,"Cc1ccc(-c2nnc(N3CCC(OS(C)(=O)=O)CC3)nc2-c2ccc(C)cc2)cc1 [Example 32, 1-[5,6-bis(4-methylphenyl)-1,2,4-triazin-3-yl]-4-piperidinol, methane sulfonate (ester)]",0.4 mg/kg,> 6.25 mg/kg,> 6.25 mg/kg,0.4 mg/kg
